Legend:
HL-60 cells [1] = assay: Acid phosphatase activities of suspended and attached HL-60 cells; format: cell-based, human
Protocol: Cells were centrifuged at 600 g for 3 min, and added at 1×10^5 cells per well in 12-well culture dishes. Medium, PMA, and long-chain bases (prepared as the 1:1 molar complex with fatty acid-free bovine serum albumin) at the indicated concentrations were added for a total volume of 2.0 ml. After the desired times, the cells in suspension were counted and checked for viability (trypan blue exclusion) with a hemacytometer. The attached cells were quantitated by measuring DNA content according to the method of West et al (Anal. Biochem., 147, 289-295, 1985) and by assaying for acid phosphatase according to the method of Schnyder (J. Exp. Med., 148, 434-445, 1978).

HL-60 cells [2] = assay: Morphology and marker enzymes (ANA esterase, acid phosphatase) of HL-60 cells on day 3; format: cell-based, human; conditions: 3 days
Text: Expression of most other signs of HL-60 cell differentiation requires longer time periods after treatment with PMA. For these experiments, the cells were examined on day 3 for adherence and acid phosphatase activity (Table IV) and morphology and the marker enzymes alpha-naptholacetate (ANA) esterase and acid phosphatase (Table V).

NADPH-oxidase = target: T1, NADPH-oxidase (Homo sapiens, UniProt P04839); assay: NADPH-oxidase activity in isolated neutrophil membranes; format: biochemical
T1 construct: endogenous in cells
Protocol: Superoxide production was also measured spectrophotometrically in isolated membranes (see below) by the method of Curnutte et al (N. Eng. J. Med. 293, 628-632) also using superoxide dismutase inhibitable reduction of cytochrome c. Assays utilized paired cuvettes with the reference cuvette containing 30 μg/ml superoxide dismutase. Both cuvettes also contained 65 mM potassium phosphate pH 7.0, 125 mM sucrose, 81 μM cytochrome c, and 0.1 mg of membrane protein. The reaction was initiated with 200 μM (final) NADPH in both cuvettes. The treatments are as described in Table I. All spectrophotometric measurements were carried out using a Cary […] spectrophotometer.
Neutrophil membranes activated for superoxide production were prepared as described previously (Hohn, J. Clin. Invest. 55, 707-713, 1975). Neutrophils (10^8) were suspended in PBS-glucose and incubated in a shaking waterbath at 37° C. Cells were activated by the addition of 10 μg PMA/ml and allowed to incubate 5 min. The reaction was stopped by adding an equal volume of ice-cold PBS. The cells were centrifuged at 400×g for 4 min at 4° C. and resuspended in PBS-glucose containing 120 μM FAD. The cells were lysed by homogenization with a teflon-glass homogenizer. The homgenate was centrifuged at 250×g for 10 min. to remove unlysed cells. […]

human neutrophils [3] = assay: Phagocytosis of opsonized latex particles by neutrophils; format: cell-based; conditions: 40 μM sphinganine, ± S.E.M.
Protocol: Latex particles were opsonized by incubating at 37° C. 1 ml of particles with 0.2 ml of human serum plus 1 ml Tris buffer, pH 8.5. […] The reaction was terminated by the addition of 0.4 ml of ice-cold buffer containing 1 mM EDTA. […] Cells are sedimented, while excess beads remain at the ficoll-saline interface. The number of latex beads internalized per cell was determined by microscopic examination.

[4] = tested on: phorbol ester binding site (protein kinase C) of neutrophils; assay: Cellular [3H]-phorbol dibutyrate binding in neutrophils; design: species or system human; conditions: 50 μM; 15 min
Protocol: Neutrophils (1×10^8 cells/ml) were preincubated with the indicated concentration of sphinganine, palmitic acid, or ceramide for five minutes prior to the addition of 50 nM (final concentration) of [^3 H]-phorbol dibutyrate (specific activity of 8.3 Ci/mMole). The cells were incubated an additional 15 min. in a shaking waterbath at 37° C. The incubation mixtures were filtered using an Amicon filtration manifold model VFM-III and washed 5 times with 5 mls of ice-cold PBS-glucose. The filters were counted using a Beckman LS7000 scintillation counter.

human neutrophils [5] = assay: Cytoplasmic calcium concentration (Quin2); format: cell-based; conditions: Sphinganine (30 μM) pretreatment
Protocol: Intracellular calcium was measured by the Quin2 method. Briefly, Quin2/acetoxymethylester (50 μM) was preincubated with 1×10^8cell/ml for 20 min. at 37°, prior to 10-fold dilution and continuation of incubation for an additional 40-60 minutes. Cells were reisolated by centrifugation to remove extracellular fluorophore, and fluorescence measurement and calibration were carried out as described by Tsien et al in J. Cell. Biol. 94, 325-334, 1982, using a Perkin-Elmer MPF-44B fluorescence spectrophotometer. Buffer consisted of 140 mM NaCl, 5 mM KCl, 1 mM Na2 PO4, 5.5 mM glucose, 0.5 mM MgSO4, 20 mM Hepes, and 1 mM CaCl2.

[6] = 8 nM PMA, 1 μM sphinganine, 24 h
[7] = 8 nM PMA, 1 μM sphinganine, 72 h
[8] = 8 nM PMA, 2.5 μM sphinganine, 24 h
[9] = 8 nM PMA, 2.5 μM sphinganine, 72 h
[10] = 8 nM PMA, 5 μM sphinganine, 24 h
[11] = 8 nM PMA, 5 μM sphinganine, 72 h
[12] = No PMA, 2.5 μM sphinganine, 24 h
[13] = No PMA, 2.5 μM sphinganine, 72 h

Cytochrome c Reduction (NADPH-oxidase; 18 μM sphinganine, membranes from PMA-pretreated cells): 27 nmols/min/mg/protein | inhibition of NADPH-dependent superoxide generation in isolated membranes (NADPH-oxidase; concentrations which inhibited the cellular response): No inhibition
SMILES: CCCCCCCCCCCCCCC[C@@H](O)[C@@H](N)CO (relative stereo) [Sphinganine, erythro-dihydrosphingosine]
Acid phosphatase activity, Adherent (HL-60 cells [1]; [6]): 0.44 ± 0.11 nmol/h/dish | Acid phosphatase activity, Suspended (HL-60 cells [1]; [6]): 0.22 ± 0.07 nmol/h/dish | Adherence (% of total) (HL-60 cells [1]; [6]): 67 % of total | Acid phosphatase activity, Adherent (HL-60 cells [1]; [7]): 2.95 ± 0.62 nmol/h/dish | Acid phosphatase activity, Adherent (%) (HL-60 cells [1]; [7]): 98% | Acid phosphatase activity, Suspended (HL-60 cells [1]; [7]): 0.05 ± 0.01 nmol/h/dish | Acid phosphatase activity, Adherent (HL-60 cells [1]; [8]): 0.30 ± 0.04 nmol/h/dish | Acid phosphatase activity, Suspended (HL-60 cells [1]; [8]): 0.49 ± 0.28 nmol/h/dish | Adherence (% of total) (HL-60 cells [1]; [8]): 38 % of total | Acid phosphatase activity, Adherent (HL-60 cells [1]; [9]): 3.10 ± 0.30 nmol/h/dish | Acid phosphatase activity, Adherent (%) (HL-60 cells [1]; [9]): 98% | Acid phosphatase activity, Suspended (HL-60 cells [1]; [9]): 0.06 nmol/h/dish | Acid phosphatase activity, Adherent (HL-60 cells [1]; [10]): 0.14 ± 0.04 nmol/h/dish | Adherence (% of total) (HL-60 cells [1]; [10]): 21 % of total | Acid phosphatase activity, Adherent (HL-60 cells [1]; [11]): 0.82 ± 0.38 nmol/h/dish | Acid phosphatase activity, Adherent (%) (HL-60 cells [1]; [11]): 87% | Acid phosphatase activity, Suspended (HL-60 cells [1]; [11]): 0.12 ± 0.08 nmol/h/dish | Acid phosphatase activity, Adherent (HL-60 cells [1]; No PMA, 1 μM sphinganine, 24 h): 0.06 ± 0.03 nmol/h/dish | Acid phosphatase activity, Suspended (HL-60 cells [1]; No PMA, 1 μM sphinganine, 24 h): 1.53 ± 0.01 nmol/h/dish | Adherence (% of total) (HL-60 cells [1]; No PMA, 1 μM sphinganine, 24 h): 4 % of total | Acid phosphatase activity, Adherent (HL-60 cells [1]; No PMA, 1 μM sphinganine, 72 h): 0.05 ± 0.03 nmol/h/dish | Acid phosphatase activity, Adherent (%) (HL-60 cells [1]; No PMA, 1 μM sphinganine, 72 h): 2% | Acid phosphatase activity, Suspended (HL-60 cells [1]; No PMA, 1 μM sphinganine, 72 h): 2.77 ± 0.25 nmol/h/dish | Acid phosphatase activity, Adherent (HL-60 cells [1]; [12]): 0.06 ± 0.02 nmol/h/dish | Acid phosphatase activity, Suspended (HL-60 cells [1]; [12]): 1.25 ± 0.16 nmol/h/dish | Adherence (% of total) (HL-60 cells [1]; [12]): 5 % of total | Acid phosphatase activity, Adherent (HL-60 cells [1]; [13]): 0.05 ± 0.02 nmol/h/dish | Acid phosphatase activity, Adherent (%) (HL-60 cells [1]; [13]): 2% | Acid phosphatase activity, Suspended (HL-60 cells [1]; [13]): 2.35 ± 0.11 nmol/h/dish | Acid phosphatase activity, Adherent (HL-60 cells [1]; No PMA, 5 μM sphinganine, 24 h): 0.04 ± 0.01 nmol/h/dish | Acid phosphatase activity, Suspended (HL-60 cells [1]; No PMA, 5 μM sphinganine, 24 h): 0.91 ± 0.16 nmol/h/dish | Adherence (% of total) (HL-60 cells [1]; No PMA, 5 μM sphinganine, 24 h): 4 % of total | Acid phosphatase activity, Adherent (HL-60 cells [1]; No PMA, 5 μM sphinganine, 72 h): 0.04 ± 0.01 nmol/h/dish | Acid phosphatase activity, Adherent (%) (HL-60 cells [1]; No PMA, 5 μM sphinganine, 72 h): 14% | Acid phosphatase activity, Suspended (HL-60 cells [1]; No PMA, 5 μM sphinganine, 72 h): 0.24 ± 0.01 nmol/h/dish | Acid phosphatase (HL-60 cells [2]; 8 nM PMA, adherent cells, 1 μM sphinganine): 0.64 nmol/h/105 cells | Acid phosphatase (HL-60 cells [2]; 8 nM PMA, adherent cells, 2.5 μM sphinganine): 0.60 nmol/h/105 cells | Acid phosphatase (HL-60 cells [2]; 8 nM PMA, adherent cells, 5 μM sphinganine): 0.64 nmol/h/105 cells | Acid phosphatase (HL-60 cells [2]; 8 nM PMA, suspended cells, 1 μM sphinganine): 0.19 nmol/h/105 cells | Acid phosphatase (HL-60 cells [2]; 8 nM PMA, suspended cells, 2.5 μM sphinganine): 0.12 nmol/h/105 cells | Acid phosphatase (HL-60 cells [2]; 8 nM PMA, suspended cells, 5 μM sphinganine): 0.06 nmol/h/105 cells | Acid phosphatase (HL-60 cells [2]; No PMA, suspended cells, 1 μM sphinganine): 0.25 nmol/h/105 cells | Acid phosphatase (HL-60 cells [2]; No PMA, suspended cells, 2.5 μM sphinganine): 0.22 nmol/h/105 cells | Acid phosphatase (HL-60 cells [2]; No PMA, suspended cells, 5 μM sphinganine): 0.16 nmol/h/105 cells | ingested latex beads per cell (human neutrophils [3]): 7.2±0.8 beads/cell | displacement of [3H]-phorbol dibutyrate [4]: 60% | Calcium, Resting (human neutrophils [5]): 0.20 ± 0.02 µM | Calcium, FMLP-Peak (human neutrophils [5]; 1 μM FMLP): 0.66 ± 0.14 µM

— patent US4937232A, “Inhibition of protein kinase C by long-chain bases” (priority 1988, dated 1990)
